Experimental data taken from patent US20240279338A1, “Combination Treatment of Cancer” (Ares Trading S.A., priority 2021, published 2024).

Experiments:
[1] = system: MC38 cells; experiment: CD73low MC38 syngeneic tumor model, tumor growth; assay type: in vivo, mice
Method: Female C57BL/6 mice were inoculated with 1×10^6 MC38 cells in the right lower flank and were treated with Compound A (300 mg/kg po, BID), bintrafusp alfa (24.6 mg/kg iv, days 0, 3, 6), Compound A+bintrafusp alfa, when average tumor volume reached approximately 70 mm^3. Vehicle (po, BID) and isotype control antibody injections (20 mg/kg iv, days 0, 3, 6) were used as controls. (A) Average tumor volumes with SEM, and (B) individual tumor volumes are presented. Tumor volume data were analyzed using two-way ANOVA followed by Tukey's multiple comparison test.
(§1) To determine whether combined treatment with the dual A2A/A2B receptor inhibitor “Compound A” ((S)-7-Oxa-2-aza-spiro[4.5]decane-2-carboxylic acid [7-(3,6-dihydro-2H-pyran-4-yl)-4-methoxy-thiazolo[4,5-c]pyridin-2-yl]-amide) and bintrafusp alfa can inhibit tumor growth in either CD73^hi or CD73^low models, tumor growth was monitored in […] syngeneic tumor models. Animals were inoculated with either CD73^hi tumor cells (4T1, E0771, or EMT6) or with CD73^low MC38, H22 or MBT2 tumor cells. For all tumor models, animals were treated with either 1) vehicle and isotype, 2) Compound A and isotype, 3) vehicle and bintrafusp alfa, or 4) Compound A and bintrafusp alfa. […]

[2] = system: 4T1 cells; experiment: CD73hi adenosine-rich 4T1 syngeneic tumor model, tumor growth; assay type: in vivo; conditions: 4T1, female BALB/c mice; Day 13 post treatment initiation; Compound A 300 mg/kg po bid; bintrafusp alfa 24.6 mg/kg iv days 0, 3, 6
Method: (§2) Female BALB/c mice were inoculated with 5×10^4 4T1 cells into the right mammary fat pad and were treated with Compound A (300 mg/kg po, bid), bintrafusp alfa (24.6 mg/kg iv, days 0, 3, 6), Compound A+bintrafusp alfa, when average tumor volume reached approximately 60 mm^3. Vehicle (po, bid) and isotype control antibody injections (20 mg/kg iv, days 0, 3, 6) were used as controls. (A) Average tumor volumes with SEM, and (B) individual tumor volumes are presented. Tumor volume data were analyzed using two-way ANOVA followed by Tukey's multiple comparison test.
as §1

[3] = system: CD73 KO 4T1 tumor cells; experiment: CD73-KO 4T1 syngeneic tumor model, tumor growth; assay type: in vivo; conditions: CD73 KO 4T1, female BALB/c mice; Day 18 post treatment initiation; Compound A 300 mg/kg po bid; bintrafusp alfa 24.6 mg/kg iv days 0, 3, 6
Method: as §2, with “1×10^5 CD73 KO” for “5×10^4”, “4T1 tumor” for “4T1”
Further to the results of Example 3, tumor growth inhibition by the combined treatment with the dual A2A/A2B receptor inhibitor “Compound A” ((S)-7-Oxa-2-aza-spiro[4.5]decane-2-carboxylic acid [7-(3,6-dihydro-2H-pyran-4-yl)-4-methoxy-thiazolo[4,5-c]pyridin-2-yl]-amide) and bintrafusp alfa was examined in a syngeneic 4T1 tumor model, in which CD73 was knocked-out using GenCRISPR™ gene editing technology (GenScript USA, Inc). Efficacy of CD73 knockout in 4T1 tumor cells was confirmed by flow cytometry. Female BALB/c mice were inoculated into the right mammary fat pad with 1×10^5 CD73 KO 4T1 tumor cells and were treated with Compound A (300 mg/kg po, bid), bintrafusp alfa (24.6 mg/kg iv, days 0, 3, 6), Compound A+bintrafusp alfa, when average tumor volume reached approximately 60 mm^3. […]

Molecule	tumor growth inhibition ([1]; MC38, Compound A 300 mg/kg po BID monotherapy)	tumor growth inhibition, T/C [2]	tumor growth inhibition, T/C [3]	tumor growth inhibition, T/C ([1]; MC38, female C57BL/6 mice, Day 22 post treatment initiation, Compound A 300 mg/kg po BID, bintrafusp alfa 24.6 mg/kg iv days 0, 3, 6)
COc1ncc(C2=CCOCC2)c2sc(NC(=O)N3CC[C@@]4(CCCOC4)C3)nc12 [Compound A, (S)-7-Oxa-2-aza-spiro[4.5]decane-2-carboxylic acid [7-(3,6-dihydro-2H-pyran-4-yl)-4-methoxy-thiazolo[4,5-c]pyridin-2-yl]-amide]	no tumor growth inhibition observed	68.5%	108%	–
bintrafusp alfa: anti-PD-L1:TGFβRII fusion protein, CAS 1918149-01-5; human IgG1 antibody against PD-L1 fused to extracellular domain of human TGF-β receptor II	–	86.2%	75.4%	42.1%
